Assay results published in PMC7321301, “Characteristics of New Peptides GQLGEHGGAGMG, GEHGGAGMGGGQFQPV, EQGFLPGPEESGR, RLARAGLAQ, YGNPVGGVGH, and GNPVGGVGHGTTGT as Inhibitors of Enzymes Involved in Metabolic Syndrome and Antimicrobial Potential” (Molecules, 2020).
No end group written: not given here.

Tests used:
[1] = target: angiotensin converting enzyme (ACE) (Homo sapiens, UniProt P12821); experiment: ACE inhibitor activity (HHL substrate, OPA) and kinetics; type: biochemical; details: mean ± SD, triplicate; nd = not detected
Method: For all inhibitory activity, IC50 was calculated. The IC50 value defined as the concentration of the extract inhibiting 50% of the enzyme activity was determined by measuring the enzyme inhibitory activity and peptide contents in each sample. The IC50 value was calculated from the plotted graph of the inhibition activity for the five different peptide concentrations.
The angiotensin converting enzyme was prepared according to the method described by Karaś et al.. For ACE inhibitor activity, 5 μL of ACE was mixed with 5 μL of the samples and, after preincubation at 37 °C for 5 min, 5 μL of a 5 mM N-Hippuryl-L-histidyl-L-leucine (HHL) solution was added. The reaction was carried out at 37 °C for 60 min. Next, 0.1 M borate buffer with 0.2 M NaOH and 70 μL of an o-phthaldialdehyde OPA solution (20 mg/mL OPA in methanol) were added. The absorbance at 390 nm was measured using BioTek Microplate Readers ([…]).
Substrate solutions (5.0, 10.0, 15.0, and 20.0 mM) were prepared and used to determine the Michaelis constant (Km), the inhibition constant (Ki), and the maximum velocity (Vmax) of enzymes. The kinetic parameters were evaluated by Lineweaver–Burk’s method. The reaction conditions were the same as in the enzyme inhibitory activity assay.

HECa10 cells = experiment: Neutral red (NR) test; type: cell-based, murine; details: 24-h incubation, 0.1–100 µg/mL
Method: The study was conducted according to the procedure described by Rokicki et al.. HECa10 cells after 80–90% confluence were trypsinized (3 min, 37 °C), centrifuged (300 g, 5 min), counted, and plated in 96-well plates at a concentration of 1 × 10^4 cells/well. Then, 24 h after seeding, cells were washed with phosphate-buffered saline (PBS) solution and culture medium (Dulbecco’s Modified Eagle Medium (DMEM) + 10% fetal bovine serum (FBS) + antibiotics, all from Life Technologies, Warsaw, Poland) was added with test factors in concentrations: 0.1; 1; 5; 10; 50; 100 µg/mL). Then, 24 h after addition of the compounds, proliferation tests (MTT, NR, LDH) were performed. The color intensity was determined using a Fluostar Omega microplate reader. Results are presented as the mean ± SD of 3 independent experiments (n = 12).
The cells were seeded in a 96-well culture plate at a concentration of 1 × 10^4 cells/well. Then, 24 h after seeding, the cells were rinsed twice with PBS (Life Technologies, Poland) and resuspended in fresh growth medium. Peptide fractions were added at concentrations of 0 (control), 0.1, 1, 5, 10, 50, and 100 µg/mL. After 24 h of incubation with the proteins, the uptake of the neutral red (NR kit, Sigma Aldrich, Poznań, Poland,) was assessed. The absorption was measured at a wavelength of 540 nm with the background cutoff at 690 nm (FLUOstar Omega, BMG Labtech GmbH, Ortenberg, Germany). The results are presented as the percentage of the control values (mean ± SD). Each assay was performed in triplicate (n = 18).

Sequence of angiotensin converting enzyme (ACE) (P12821 30-1306, species assumed): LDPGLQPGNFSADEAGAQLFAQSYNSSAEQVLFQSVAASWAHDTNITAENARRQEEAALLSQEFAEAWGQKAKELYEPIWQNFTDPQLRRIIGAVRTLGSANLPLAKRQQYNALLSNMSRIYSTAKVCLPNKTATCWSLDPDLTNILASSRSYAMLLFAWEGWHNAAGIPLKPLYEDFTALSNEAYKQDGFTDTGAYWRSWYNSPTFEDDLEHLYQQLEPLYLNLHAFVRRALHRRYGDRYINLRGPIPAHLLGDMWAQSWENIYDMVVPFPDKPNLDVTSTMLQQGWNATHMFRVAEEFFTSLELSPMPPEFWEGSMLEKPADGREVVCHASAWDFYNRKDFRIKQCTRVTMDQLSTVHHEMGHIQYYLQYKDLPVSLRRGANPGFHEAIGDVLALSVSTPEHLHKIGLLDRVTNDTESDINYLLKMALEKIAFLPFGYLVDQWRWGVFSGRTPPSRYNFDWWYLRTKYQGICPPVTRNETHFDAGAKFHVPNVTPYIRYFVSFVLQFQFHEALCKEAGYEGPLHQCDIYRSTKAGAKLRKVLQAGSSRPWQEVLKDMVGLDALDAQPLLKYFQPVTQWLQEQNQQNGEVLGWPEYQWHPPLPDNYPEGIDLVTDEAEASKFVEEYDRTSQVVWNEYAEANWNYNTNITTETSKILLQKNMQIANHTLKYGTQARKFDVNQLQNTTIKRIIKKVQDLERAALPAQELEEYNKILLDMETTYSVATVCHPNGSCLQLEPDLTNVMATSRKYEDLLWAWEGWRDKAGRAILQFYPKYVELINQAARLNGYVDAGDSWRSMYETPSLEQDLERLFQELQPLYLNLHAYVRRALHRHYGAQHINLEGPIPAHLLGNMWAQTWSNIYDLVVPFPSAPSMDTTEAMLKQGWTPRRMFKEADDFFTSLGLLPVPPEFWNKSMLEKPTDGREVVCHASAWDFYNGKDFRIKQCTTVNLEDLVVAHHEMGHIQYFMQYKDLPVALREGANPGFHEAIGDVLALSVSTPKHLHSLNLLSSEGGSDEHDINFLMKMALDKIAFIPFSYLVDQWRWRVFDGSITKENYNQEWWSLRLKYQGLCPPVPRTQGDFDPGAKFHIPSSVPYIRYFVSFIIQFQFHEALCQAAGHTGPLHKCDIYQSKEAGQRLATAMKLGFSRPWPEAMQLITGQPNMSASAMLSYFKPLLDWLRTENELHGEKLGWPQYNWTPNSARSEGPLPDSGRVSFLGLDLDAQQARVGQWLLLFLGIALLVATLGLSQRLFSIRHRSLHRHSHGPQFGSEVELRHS

Row | Sequence | IC50 [1] [µM] | NR test, HECa10 cell count compared to control (HECa10 cells) | IC50 ACE [1]
1 | EQGFLPGPEESGR [ER-13, EQGFLPGPEESGR] | 457 | no statistically significant differences | 
2 | YGNPVGGVGH [YH-10, YGNPVGGVGH] | 522 | declined statistically significantly | 
3 | GQLGEHGGAGMG [GG-12, GQLGEHGGAGMG] | 525 | no statistically significant differences | 
4 | GNPVGGVGHGTTGT [GT-14, GNPVGGVGHGTTGT] | 434 | no statistically significant differences | 
5 | GEHGGAGMGGGQFQPV [GV-16, GEHGGAGMGGGQFQPV] | 490 | no statistically significant differences | 
6 | RLARAGLAQ [RQ-9, RLARAGLAQ] |  | no statistically significant differences | no inhibitory effect
